According to publication PMC6007354 (2016):

How the values were obtained:
[1] = tested on: tRNA (GCGCGCGCGC) (RNA, other) GCGCGCGCGC; assay: 1H NMR titration; conditions: 0.01 M HEPES pH 7.4 in D2O; shifts of probe and base protons
[2] = tested on: tRNA (AUAUAUAUAU) (RNA, other) AUAUAUAUAU; assay: 1H NMR titration; conditions: 0.01 M HEPES pH 7.4 in D2O; shifts of probe and base protons
[3] = tested on: tRNA (GCGCGCGCGC) (RNA, other) GCGCGCGCGC; assay: fluorescence turn-on (443 nm); conditions: 10 mM HEPES pH 7.4; probe 10 uM; quantum yield 0.22; no constant
[4] = tested on: tRNA (AUAUAUAUAU) (RNA, other) AUAUAUAUAU; assay: fluorescence turn-on (443 nm); conditions: 10 mM HEPES pH 7.4; probe 10 uM; quantum yield 0.21; no constant

Measured: binding

C[n+]1ccn(Cc2ccc3ccccc3c2)c1
yes: all assays above
